As a reminder, the MIC is the smallest concentration in the dilution series that meets the test's criterion for growth inhibition.

≈ marks a conversion by molar mass, not a printed value.

One assay relates to A. fumigatus 1163. The assay can be described thus: MIC. It is filed as cell-based.
In a further assay the test system is C. tropicalis. Description: MIC. It is filed as cell-based.
A further assay concerns C. albicans. The assay can be described thus: MIC. It is filed as cell-based.
The test system of the next assay is C. albicans SN250. Description: MIC. The class given is cell-based, Candida albicans.
The test system of assay [1] is C. albicans SN250, C. albicans, C. krusei, C. glabrata, C. tropicalis, A. fumigatus 91, 1163, 1100. Description: Average MIC over the tested strains. The class given is cell-based. The conditions noted are these: average over the 8 listed strains.
The test system of the next assay is C. krusei. Description: MIC. The class given is cell-based.
A further assay deals with C. glabrata. The assay can be described thus: MIC. The class given is cell-based.
A further assay deals with A. fumigatus 91. Description: MIC. The class given is cell-based.
For another assay, the system named is A. fumigatus 1100. Description: MIC. The class given is cell-based.

For the compound `CC1C=CC=CC=CC=CC=CC=CC=CC(OC2OC(C)C(O)C(N)C2O)CC2OC(O)(CC(O)CC(O)C(O)CCC(O)CC(O)CC(=O)OC(C)C(C)C1O)CC(O)C2C(=O)NCC(O)CO` (mixture of isomers) [AJ], the “MIC A. fumigatus 1163” value with A. fumigatus 1163 was 0.3 µM. For the same compound, the “MIC C. tropicalis” value against C. tropicalis was determined as 0.2 µM. The “MIC C. albicans” value in the assay with C. albicans stood at 0.20 µM. The “MIC C. albicans SN250” value in the assay on C. albicans SN250 was found to be 0.15 µM. Besides, the minimum inhibitory concentration (MIC) in assay [1] was 0.329 µM. Also, in the assay on C. krusei, the “MIC C. krusei” value turned out to be 0.3 µM. The “MIC C. glabrata” value in the assay with C. glabrata was determined as 0.08 µM. Moreover, in the assay on A. fumigatus 91, the “MIC A. fumigatus 91” value was found to be 1 µM. The “MIC A. fumigatus 1100” value with A. fumigatus 1100 is 0.4 µM.
Turning to `CC1C=CC=CC=CC=CC=CC=CC=CC(OC2OC(C)C(O)C(N)C2O)CC2OC(O)(CC(O)CC(O)C(O)CCC(O)CC(O)CC(=O)OC(C)C(C)C1O)CC(O)C2C(=O)NCCS` (stereo not drawn) [AB], the “MIC A. fumigatus 1163” value against A. fumigatus 1163 worked out at 1 µM (≈ 0.983 µg/mL). Also, the “MIC C. tropicalis” value against C. tropicalis was found to be 0.45 µM (≈ 0.442 µg/mL). The “MIC C. albicans” value against C. albicans is 0.45 µM (≈ 0.442 µg/mL). In addition, the “MIC C. albicans SN250” value in the assay on C. albicans SN250 was determined as 0.4 µM (≈ 0.393 µg/mL). In [1], the MIC is reported as 0.706 µM. In the assay on C. krusei, the “MIC C. krusei” value was determined as 1 µM (≈ 0.983 µg/mL). Further, in the assay on C. glabrata, the “MIC C. glabrata” value came out at 0.35 µM (≈ 0.344 µg/mL). Further, the “MIC A. fumigatus 91” value against A. fumigatus 91 stood at 1 µM (≈ 0.983 µg/mL). Moreover, the “MIC A. fumigatus 1100” value with A. fumigatus 1100 was 1 µM (≈ 0.983 µg/mL).
In the case of `CC(CO)NC(=O)C1C(O)CC2(O)CC(O)CC(O)C(O)CCC(O)CC(O)CC(=O)OC(C)C(C)C(O)C(C)C=CC=CC=CC=CC=CC=CC=CC(OC3OC(C)C(O)C(N)C3O)CC1O2` (stereo not drawn) [AC], the “MIC A. fumigatus 1163” value against A. fumigatus 1163 was 1 µM (≈ 0.981 µg/mL). The “MIC C. tropicalis” value with C. tropicalis was 0.35 µM (≈ 0.343 µg/mL). Also, in the assay on C. albicans, the “MIC C. albicans” value was 0.3 µM (≈ 0.294 µg/mL). In addition, in the assay on C. albicans SN250, the “MIC C. albicans SN250” value came out at 0.3 µM (≈ 0.294 µg/mL). Also, in assay [1], the MIC was found to be 0.713 µM. For the same compound, the “MIC C. krusei” value with C. krusei was determined as 0.45 µM (≈ 0.442 µg/mL). Moreover, the “MIC C. glabrata” value with C. glabrata was 0.3 µM (≈ 0.294 µg/mL). For the same compound, the “MIC A. fumigatus 91” value in the assay with A. fumigatus 91 was 2 µM (≈ 1.96 µg/mL). Also, the “MIC A. fumigatus 1100” value with A. fumigatus 1100 amounted to 1 µM (≈ 0.981 µg/mL).
On to `CCC(CO)NC(=O)C1C(O)CC2(O)CC(O)CC(O)C(O)CCC(O)CC(O)CC(=O)OC(C)C(C)C(O)C(C)C=CC=CC=CC=CC=CC=CC=CC(OC3OC(C)C(O)C(N)C3O)CC1O2` (stereo not drawn) [AD], for which the “MIC A. fumigatus 1163” value in the assay with A. fumigatus 1163 turned out to be 1 µM (≈ 0.995 µg/mL). In the assay on C. tropicalis, the “MIC C. tropicalis” value was determined as 0.4 µM (≈ 0.398 µg/mL). Also, the “MIC C. albicans” value in the assay on C. albicans is 0.35 µM (≈ 0.348 µg/mL). For the same compound, the “MIC C. albicans SN250” value with C. albicans SN250 amounted to 0.3 µM (≈ 0.299 µg/mL). Moreover, in [1], the minimal inhibitory concentration (MIC) is 0.731 µM. In the assay on C. krusei, the “MIC C. krusei” value amounted to 0.5 µM (≈ 0.498 µg/mL). Further, the “MIC C. glabrata” value against C. glabrata is 0.3 µM (≈ 0.299 µg/mL). Moreover, the “MIC A. fumigatus 91” value against A. fumigatus 91 was found to be 2 µM (≈ 1.99 µg/mL). The “MIC A. fumigatus 1100” value against A. fumigatus 1100 was found to be 1 µM (≈ 0.995 µg/mL).
As for `CC(C)CC(CO)NC(=O)C1C(O)CC2(O)CC(O)CC(O)C(O)CCC(O)CC(O)CC(=O)OC(C)C(C)C(O)C(C)C=CC=CC=CC=CC=CC=CC=CC(OC3OC(C)C(O)C(N)C3O)CC1O2` (stereo not drawn) [AE], the “MIC A. fumigatus 1163” value against A. fumigatus 1163 came out at 1 µM (≈ 1.02 µg/mL). Also, the “MIC C. tropicalis” value in the assay with C. tropicalis was determined as 0.5 µM (≈ 0.512 µg/mL). Also, the “MIC C. albicans” value against C. albicans is 0.75 µM (≈ 0.767 µg/mL). In the assay on C. albicans SN250, the “MIC C. albicans SN250” value stood at 1 µM (≈ 1.02 µg/mL). In [1], the minimum inhibitory concentration (MIC) is recorded as 0.956 µM. Further, in the assay on C. krusei, the “MIC C. krusei” value was 1 µM (≈ 1.02 µg/mL). Besides, in the assay with C. glabrata, the “MIC C. glabrata” value worked out at 0.4 µM (≈ 0.409 µg/mL). For the same compound, the “MIC A. fumigatus 91” value in the assay on A. fumigatus 91 came out at 2 µM (≈ 2.05 µg/mL). For the same compound, the “MIC A. fumigatus 1100” value with A. fumigatus 1100 was determined as 1 µM (≈ 1.02 µg/mL).
As to `CC1C=CC=CC=CC=CC=CC=CC=CC(OC2OC(C)C(O)C(N)C2O)CC2OC(O)(CC(O)CC(O)C(O)CCC(O)CC(O)CC(=O)OC(C)C(C)C1O)CC(O)C2C(=O)NC(CO)C(C)(C)C` (stereo not drawn) [AF], the “MIC A. fumigatus 1163” value against A. fumigatus 1163 was found to be 2 µM (≈ 2.05 µg/mL). In the assay on C. tropicalis, the “MIC C. tropicalis” value worked out at 0.75 µM (≈ 0.767 µg/mL). For the same compound, in the assay on C. albicans, the “MIC C. albicans” value was 0.5 µM (≈ 0.512 µg/mL). In the assay on C. albicans SN250, the “MIC C. albicans SN250” value was 0.4 µM (≈ 0.409 µg/mL). Further, in assay [1], the MIC was found to be 1.131 µM. Also, the “MIC C. krusei” value in the assay on C. krusei was 1 µM (≈ 1.02 µg/mL). For the same compound, in the assay with C. glabrata, the “MIC C. glabrata” value amounted to 0.4 µM (≈ 0.409 µg/mL). For the same compound, the “MIC A. fumigatus 91” value in the assay on A. fumigatus 91 amounted to 2 µM (≈ 2.05 µg/mL). Besides, the “MIC A. fumigatus 1100” value in the assay on A. fumigatus 1100 turned out to be 2 µM (≈ 2.05 µg/mL).
`COCCNC(=O)C1C(O)CC2(O)CC(O)CC(O)C(O)CCC(O)CC(O)CC(=O)OC(C)C(C)C(O)C(C)C=CC=CC=CC=CC=CC=CC=CC(OC3OC(C)C(O)C(N)C3O)CC1O2` (stereo not drawn) [AG]: the “MIC A. fumigatus 1163” value against A. fumigatus 1163 is 1 µM (≈ 0.981 µg/mL). In addition, the “MIC C. tropicalis” value with C. tropicalis came to 0.4 µM (≈ 0.392 µg/mL). In addition, the “MIC C. albicans” value against C. albicans was 035 µM (≈ 34.3 µg/mL). The “MIC C. albicans SN250” value in the assay on C. albicans SN250 came to 0.4 µM (≈ 0.392 µg/mL). Further, the minimal inhibitory concentration (MIC) in assay [1] is listed as 0.806 µM. Besides, the “MIC C. krusei” value in the assay with C. krusei was determined as 1 µM (≈ 0.981 µg/mL). Moreover, the “MIC C. glabrata” value in the assay on C. glabrata came to 0.3 µM (≈ 0.294 µg/mL). Further, the “MIC A. fumigatus 91” value against A. fumigatus 91 is 2 µM (≈ 1.96 µg/mL). Further, in the assay with A. fumigatus 1100, the “MIC A. fumigatus 1100” value came out at 1 µM (≈ 0.981 µg/mL).

(Values after patent publication US20230016424A1, “HYBRID AMIDE DERIVATIVES OF AMPHOTERICIN B” (The Board of Trustees of the University of Illinois, priority 2019, published 2023).)
